Reference: ChEMBL document CHEMBL2203143, “Synthesis and antiproliferative activities of ottelione a analogues” (ACS Med Chem Lett, 2012)
Active and inactive are the calls of the source. The calls are words filed in the database; no cut-off is given here.

Tests used:
COLO 205 [1] = assay: Antiproliferative activity against human COLO205 cells assessed as cell viability after 72 hrs by CellTiter96 assay; format: functional, cell-based; settings: COLO 205, 72 h
Tubulin (Sus scrofa) [2] = biological target: T1, Tubulin (Sus scrofa) (UniProt P02554+P02550); assay: Displacement of [3H]colchicine from tubulin in pig brain at 10 uM after 16 hrs by scintillation proximity assay
T1 sequence (P02550 whole entry, looked up): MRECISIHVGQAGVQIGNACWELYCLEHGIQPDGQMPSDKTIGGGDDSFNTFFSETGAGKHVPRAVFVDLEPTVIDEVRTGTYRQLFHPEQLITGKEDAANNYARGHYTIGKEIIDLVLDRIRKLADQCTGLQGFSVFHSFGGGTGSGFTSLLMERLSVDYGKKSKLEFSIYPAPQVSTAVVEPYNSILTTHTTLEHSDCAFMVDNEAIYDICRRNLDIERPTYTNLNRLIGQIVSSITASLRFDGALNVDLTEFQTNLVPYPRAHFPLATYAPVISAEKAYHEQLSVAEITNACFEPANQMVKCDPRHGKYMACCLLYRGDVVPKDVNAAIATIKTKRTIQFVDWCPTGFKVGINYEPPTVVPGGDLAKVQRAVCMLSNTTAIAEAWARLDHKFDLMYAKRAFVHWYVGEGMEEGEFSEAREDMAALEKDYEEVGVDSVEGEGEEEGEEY
T1 sequence (P02554 whole entry, looked up): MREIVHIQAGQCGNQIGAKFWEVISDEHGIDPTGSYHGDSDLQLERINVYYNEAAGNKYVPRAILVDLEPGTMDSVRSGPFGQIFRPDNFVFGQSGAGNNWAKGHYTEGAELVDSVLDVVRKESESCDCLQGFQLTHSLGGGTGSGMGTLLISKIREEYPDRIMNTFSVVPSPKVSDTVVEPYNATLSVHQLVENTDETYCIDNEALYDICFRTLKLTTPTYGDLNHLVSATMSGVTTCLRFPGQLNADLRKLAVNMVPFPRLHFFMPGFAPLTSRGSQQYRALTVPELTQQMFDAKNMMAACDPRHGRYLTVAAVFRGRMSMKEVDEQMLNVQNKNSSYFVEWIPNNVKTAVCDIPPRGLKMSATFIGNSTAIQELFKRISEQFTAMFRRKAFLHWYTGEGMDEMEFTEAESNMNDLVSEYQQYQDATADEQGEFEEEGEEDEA

NCI-H460 [3] = assay: Antiproliferative activity against human NCI-H460 cells assessed as cell viability after 72 hrs by CellTiter96 assay; format: functional, cell-based; settings: NCI-H460, 72 h
A-375 = assay: Antiproliferative activity against human A375 cells assessed as cell viability after 72 hrs by CellTiter96 assay; format: functional, cell-based; settings: A-375, 72 h
MCF7 [4] = assay: Antiproliferative activity against human MCF7 cells assessed as cell viability after 72 hrs by CellTiter96 assay; format: functional, cell-based; settings: MCF7, 72 h
HCT-116 = assay: Antiproliferative activity against human HCT116 cells assessed as cell viability after 72 hrs by CellTiter96 assay; format: functional, cell-based; settings: HCT-116, 72 h
KB = assay: Antiproliferative activity against human KB cells assessed as cell viability after 72 hrs by CellTiter96 assay; format: functional, cell-based
NCI-H460 [5] = assay: Ratio of ottelione A IC50 to compound IC50 for human NCI-H460 cells after 72 hrs by CellTiter96 assay; format: functional
Tubulin (Sus scrofa) [6] = biological target: T1, Tubulin (Sus scrofa); assay: Inhibition of pig neuronal tubulin polymerization at 10 uM by fluorescence analysis; format: protein assay
MCF7 [7] = assay: Ratio of ottelione A IC50 to compound IC50 for human MCF7 cells after 72 hrs by CellTiter96 assay; format: functional
COLO 205 [8] = assay: Ratio of ottelione A IC50 to compound IC50 for human COLO205 cells after 72 hrs by CellTiter96 assay; format: functional

| IC50 (COLO 205 [1]) [µM] | inhibition (Tubulin (Sus scrofa) [2]) [%] | IC50 (NCI-H460 [3]) [µM] | IC50 (A-375) [µM] | IC50 (MCF7 [4]) [µM] | IC50 (HCT-116) [µM] | IC50 (KB) [µM] | inhibition (Tubulin (Sus scrofa) [6]) | SMILES | Ratio IC50 (NCI-H460 [5]) | Ratio IC50 (MCF7 [7]) | Ratio IC50 (COLO 205 [8]) |
| --- | --- | --- | --- | --- | --- | --- | --- | --- | --- | --- | --- |
| 3 | 37.3 | 0.229 | 0.0984 | 0.147 | 0.126 | 0.156 |  | C=C1C=CC(=O)[C@@H]2[C@H](Cc3ccc(O)c(F)c3)CC[C@H]12 (racemic) |  |  |  |
| 0.218 | 71.6 | 0.0776 | 0.0308 | 0.0338 | 0.0385 | 0.0688 |  | C=C1C=CC(=O)[C@@H]2[C@H](Cc3ccc(O)cc3)CC[C@H]12 (racemic) |  |  |  |
| > 1 | 8.93 | > 1 | > 1 | > 1 | > 1 | > 1 |  | C=C1C=CC(=O)[C@@H]2[C@H](Cc3cc(OC)c(OC)c(OC)c3)CC[C@H]12 (racemic) |  |  |  |
| 0.00245 | 97.1 | 0.00262 | 0.00168 | 0.00013 | 0.00111 | 0.00277 | Active | C=C1C=CC(=O)[C@@H]2[C@H](Cc3ccc(OC)c(F)c3)CC[C@H]12 (racemic) | 6 | 6 | 6 |
| 0.0757 | 68.9 | 0.106 | 0.04 | 0.0772 | 0.0774 | 0.0766 |  | C=C1C=CC(=O)[C@@H]2[C@H](Cc3ccc(OCOC)c(F)c3)CC[C@H]12 (racemic) |  |  |  |
| 0.428 | 61.7 | 0.511 | 0.222 | 0.233 | 0.235 | 0.478 |  | C=C1C=CC(=O)[C@@H]2[C@H](Cc3ccc(F)c(F)c3)CC[C@H]12 (racemic) |  |  |  |
| 0.739 | 96.1 | 0.0246 | 0.0092 | 0.0263 | 0.014 | 0.0226 |  | CC=C1C=CC(=O)[C@@H]2[C@H](Cc3ccc(OC)c(O)c3)CC[C@H]12 (racemic) |  |  |  |
| 0.244 | 95.8 | 0.016 | 0.00107 | 0.00373 | 0.00301 | 0.00494 | Active | C=C1C=CC(=O)[C@@H]2[C@H](Cc3ccc(OC)c(O)c3)CC[C@H]12 (racemic) |  |  |  |
| 0.219 | 69.3 | 0.226 | 0.0774 | 0.0636 | 0.129 | 0.208 |  | C=C1C=CC(=O)[C@@H]2[C@H](Cc3ccc(OCOC)cc3)CC[C@H]12 (racemic) |  |  |  |
| 0.0928 | 98.3 | 0.0145 | 0.0004 | 0.00117 | 0.00074 | 0.00159 | Active | C=C[C@@H]1C[C@@H](Cc2ccc(OC)c(O)c2)[C@H]2C(=O)C=CC(=C)[C@H]21 (racemic) |  |  |  |
| 0.547 | 43.2 | 0.678 | 0.237 | 0.26 | 0.257 | 0.591 |  | C=C1C=CC(=O)[C@@H]2[C@H](Cc3ccccc3)CC[C@H]12 (racemic) |  |  |  |
| > 1 | 39.2 | > 1 | 0.914 | > 1 | > 1 | > 1 |  | COc1ccc(C[C@@H]2CC[C@@H]3CC=CC(=O)[C@@H]32)cc1O (racemic) |  |  |  |
